Measurements published in PubChem BioAssay AID1645848.
Values after ≈ are worked out from the molar mass of the structure shown.

conditions: buffer; pH 7.4; 6.0 h; 150.0 µM

Q: For `Cc1ccc(-n2ncc3c(NCCCN(C)C)ncnc32)cc1Cl`, which solubility kinetic is on record?
A: The solubility kinetic was > 51 µg/mL.

Q: With `Cc1cccc(OCC(=O)Nc2ccc3nc(Nc4cccc(Cl)c4)cc(C)c3c2)c1` as the compound, how does the solubility kinetic read?
A: Its solubility kinetic is < 1 µg/mL.

Q: With `O=C(Nc1ccc(N2CCC(N3CCCCC3)CC2)c(C(=O)O)c1)c1ccc(Br)cc1` as the compound, how does the solubility kinetic read?
A: Its solubility kinetic is 34 µg/mL (≈ 69.9 µM).

Q: Which solubility kinetic does the source give for `NC(=O)C1CCN(c2nc(-c3cccc4sc5ccccc5c34)cs2)CC1` here?
A: Its solubility kinetic is < 1 µg/mL.

Q: Which solubility kinetic does the source give for `CC(C)(C)c1ccc(-c2nc(SCCCOc3ccccc3)n3[nH]c(=O)cc3n2)cc1` here?
A: Its solubility kinetic is < 1 µg/mL.

Q: Which solubility kinetic does the source give for `Cc1cc(C)c(CNC(=O)c2nc(-c3ccc(CN(C)C)cc3)cc3c2ccn3C(C)C)c(=O)[nH]1` here?
A: Its solubility kinetic is 40.3 µg/mL (≈ 85.4 µM).

Q: With `CCN(c1cc(C#CCN2CCOCC2)cc(C(=O)NCc2c(C)cc(C)[nH]c2=O)c1C)C1CCC(N(C)CCOC)CC1` (centres undefined) as the compound, how does the solubility kinetic read?
A: The solubility kinetic was > 89 µg/mL.

Q: Which solubility kinetic does the source give for `O=C1NC(=O)C(c2cnc3ccccn23)=C1c1cn2c3c(cccc13)CN(C(=O)N1CCOCC1)CC2` here?
A: Its solubility kinetic is > 73 µg/mL.

Q: For `COc1cccc(CNc2ccc(S(=O)(=O)Nc3cccs3)cc2)c1O`, which solubility kinetic is on record?
A: Its solubility kinetic is 11.6 µg/mL (≈ 29.6 µM).

Q: For `O=C(NC1CCCc2c1cnn2-c1ccc(O)cc1)c1ccccn1` (centres undefined), which solubility kinetic is on record?
A: Its solubility kinetic is 40.8 µg/mL (≈ 122 µM).

Q: With `CCOc1ccc(CN2C(=O)c3ccccc3Sc3ccc(C(=O)NC4CCC(C)CC4)cc32)cc1` (centres undefined) as the compound, how does the solubility kinetic read?
A: The solubility kinetic was 6.78 µg/mL (≈ 13.5 µM).

Q: With `Cc1cnc(N2CCC(C(N)=O)CC2)nc1-c1cccc(N(C)C)c1` as the compound, how does the solubility kinetic read?
A: Its solubility kinetic is > 50 µg/mL.

Q: For `COc1cccc(Cn2c(=O)n(-c3cccc(Cl)c3C)c(=O)c3c4c(sc32)CN(C(C)=O)CC4)c1`, which solubility kinetic is on record?
A: The solubility kinetic was < 1 µg/mL.

Q: With `C[C@H]1CCC[C@H](O)CCC/C=C/c2cc(O)cc(O)c2C(=O)O1` as the compound, how does the solubility kinetic read?
A: Its solubility kinetic is 17.1 µg/mL (≈ 53.2 µM).

Q: Which solubility kinetic does the source give for `COc1ccc(CCNc2ncnc3onc(C)c23)c(OC)c1` here?
A: The solubility kinetic was 9.08 µg/mL (≈ 28.9 µM).

Q: Which solubility kinetic does the source give for `CN(C)c1ccc(S(=O)(=O)N2CCCCC2)cc1NS(=O)(=O)c1ccc2ccccc2c1` here?
A: Its solubility kinetic is 2.05 µg/mL (≈ 4.33 µM).

Q: With `O=C(Nc1ccc(S(=O)(=O)Nc2ncc(-c3ccccc3)s2)cc1)c1ccc2ccccc2c1` as the compound, how does the solubility kinetic read?
A: Its solubility kinetic is < 1 µg/mL.

Q: For `c1ccc(-c2nc(N3CCCCCC3)c3ccccc3n2)nc1`, which solubility kinetic is on record?
A: Its solubility kinetic is > 45 µg/mL.

Q: With `Cc1ccc(CN2C(=O)C(O)(CC(=O)c3ccc(C)cc3)c3ccccc32)cc1` (centres undefined) as the compound, how does the solubility kinetic read?
A: The solubility kinetic was < 1 µg/mL.

Q: For `Cc1cc(/C=C2/C(=O)Nc3ccccc32)cc(C)c1O`, which solubility kinetic is on record?
A: Its solubility kinetic is < 1 µg/mL.

Q: For `Cc1cc(SCC(=O)c2ccccc2)n2ncc(-c3ccccc3)c2n1`, which solubility kinetic is on record?
A: Its solubility kinetic is < 1 µg/mL.

Q: For `CCOc1ccc(N2C(=O)c3n[nH]c(-c4cccs4)c3C2c2cccc(F)c2)cc1` (centres undefined), which solubility kinetic is on record?
A: Its solubility kinetic is < 1 µg/mL.

Q: With `COc1ccc(C)cc1Nc1c2c(nc3ccccc13)CCC2` as the compound, how does the solubility kinetic read?
A: The solubility kinetic was > 45 µg/mL.

Q: For `Cc1sc(NC(=O)Cc2ccc3c(c2)OCO3)nc1-c1ccc2c(c1)CCN2C(=O)c1ccccc1C(F)(F)F`, which solubility kinetic is on record?
A: Its solubility kinetic is < 1 µg/mL.

Q: Which solubility kinetic does the source give for `Fc1cc(Nc2nc(-c3ccncc3)nc3ccccc23)ccc1-c1cccc(OC(F)(F)F)c1` here?
A: Its solubility kinetic is < 1 µg/mL.

Q: Which solubility kinetic does the source give for `COc1ccc(-c2ccc3ncc(Nc4cccnc4OC)n3n2)cn1` here?
A: Its solubility kinetic is 5.33 µg/mL (≈ 15.3 µM).

Q: For `CNC(=O)c1ccc(-c2cnc3cnc(C(=O)N(C)c4ccc(Cl)cc4)cn23)cc1`, which solubility kinetic is on record?
A: Its solubility kinetic is > 62 µg/mL.

Q: For `O=C(O)c1cccc(-c2cnc3ccccc3c2)c1`, which solubility kinetic is on record?
A: Its solubility kinetic is > 37 µg/mL.

Q: With `Cc1ccc(-c2ccc(CNc3nc(-c4ccccc4C(C)C)ncc3C)cc2)cn1` as the compound, how does the solubility kinetic read?
A: The solubility kinetic was < 1 µg/mL.

Q: For `Cc1ccc(-n2c(C)cc(-c3nnc4n3CCCCC4)c2C)cc1`, which solubility kinetic is on record?
A: Its solubility kinetic is 27.8 µg/mL (≈ 86.6 µM).

Q: With `C[C@H]1CN(C(=O)Nc2ccc(F)cc2F)C[C@@H]1c1nc(-c2ccccc2)no1` as the compound, how does the solubility kinetic read?
A: Its solubility kinetic is 19.3 µg/mL (≈ 50.3 µM).

Q: For `CC1=C(C(=O)Nc2nccs2)C(c2ccccc2Br)N=C(Nc2nc3ccccc3o2)N1` (centres undefined), which solubility kinetic is on record?
A: The solubility kinetic was < 1 µg/mL.

Q: With `Cc1cn2c(N)c(Cl)cc(C(=O)NCC3CCN(CC(C)C)CC3)c2n1` as the compound, how does the solubility kinetic read?
A: Its solubility kinetic is 39.2 µg/mL (≈ 104 µM).

Q: For `O=C1CCCC2=C1C(c1ccccc1Cl)N=C(Nc1nc3ccccc3o1)N2` (centres undefined), which solubility kinetic is on record?
A: Its solubility kinetic is < 1 µg/mL.

Q: For `CCc1ccc(CNc2ccc3c(c2)ncn3C(C)(C)C)cc1`, which solubility kinetic is on record?
A: Its solubility kinetic is 10.8 µg/mL (≈ 35.3 µM).

Q: Which solubility kinetic does the source give for `Cc1ccc(C2=CSC(NC(=O)CSc3nncn3C)=NN2)cc1` here?
A: Its solubility kinetic is > 53 µg/mL.

Q: For `COc1cccc(CNc2ccc(S(=O)(=O)Nc3nc(C)c(C)s3)cc2)c1O`, which solubility kinetic is on record?
A: The solubility kinetic was 1.83 µg/mL (≈ 4.35 µM).

Q: With `FC(F)(F)c1ccccc1-c1nc(NCc2cccs2)c2ccccc2n1` as the compound, how does the solubility kinetic read?
A: Its solubility kinetic is < 1 µg/mL.

Q: For `CCc1ccc(C(=O)Nc2cc(CN3CCN(C)CC3)cc(C(F)(F)F)c2)cc1C#Cc1cnc2ccnn2c1`, which solubility kinetic is on record?
A: Its solubility kinetic is < 1 µg/mL.
